# Measurements from US8802597B2, “Herbicidal pyrimidines” (E I du Pont de Nemours and Company, priority 2003, dated 2014).
# Assays:
# [1] = test system: Canada thistle (Cirsium arvense); assay: Test L field study, Compound 1 and nicosulfuron; assay type: in vivo; conditions: Nicosulfuron 18 g a.i./ha, approximately 56 days after treatment
# Excerpt: (§1) This field study included treatments that consisted of Compound 1 and nicosulfuron alone and in combination on Canada thistle (Cirsium arvense) and daisy fleabane (Erigeron spp.). The plants ranged from 20 to 30 cm in height at the time of application during the month of May in the vicinity of Newark, Del. Compound 1 was formulated as a wettable powder containing 25% active ingredient by weight. Nicosulfuron was in the form of Accent® Herbicide, a water-dispersible granule formulation containing 75% active ingredient by weight. The formulations were dispersed in water in the sprayer tank before treatment. The treatments were made using a backpack sprayer calibrated to deliver 24 gallons per acre (224 L per hectare) to a 10 ft×30 ft (3 m×9 m) plot. Each treatment was replicated two times. The effects on the plants approximately 56 days after treatment were visually compared to untreated controls. Plant response ratings were calculated as the means of the two replicates, based on a scale of 0 to 100 where 0 is no effect and 100 is complete control. Colby's Equation was used to determine the herbicidal effects expected from the mixture.
# [2] = test system: daisy fleabane (Erigeron spp.); assay: Test L field study, Compound 1 and nicosulfuron; assay type: in vivo; conditions: Nicosulfuron 18 g a.i./ha, approximately 56 days after treatment
# Excerpt: as §1
smiles,measurement,setting,value
"COc1cc(OC)nc(NC(=O)NS(=O)(=O)c2ncccc2C(=O)N(C)C)n1 [Nicosulfuron, nicosulfuron, reference compound]",Obsd. observed effect (0 to 100 scale),[1],15
same,Obsd. observed effect (0 to 100 scale),[2],28
